# Measurements reported in patent US20080113926A1, “9A-Carbamoyl-Y-Aminopropyl- And 9A-Thiocabamoyl-Y-Aminopropyl-Azalides With Antimalarial Activity” (priority 2005, published 2008).
# Legend:
# [1] = system: Plasmodium falciparum clone CDC/Indochina III (W-2); assay: In vitro antimalarial [3H]-hypoxanthine incorporation serial dilution assay, W2; format: cell-based; settings: P. falciparum W2, parasites exposed for 72 hours; for IC50: Plasmodium falciparum, W2, 72 h
# From the text: (§1) The in vitro screens for intrinsic antimalarial activity were based on modifications of the procedures described by Desjardins R E, Canfield C J, Haynes J D, Chulay J D. (Quantitative assessment of antimalarial activity in vitro by a semiautomated microdilution technique. Antimicrob Agents Chemother. 1979 December; 16(6):710-8), Chulay J D, Haynes J D, Diggs C L. (Plasmodium falciparum: Assessment of in vitro growth by [3H]hypoxanthine incorporation. Exp. Parasitol. 1983 55:138-146), and Milhous W K, Weatherly N F, Bowdre J H, Desjardins R E. (In vitro activities of and mechanisms of resistance to antifol antimalarial drugs. Antimicrob Agents Chemother. 1985 April; 27(4):525-30). The system was limited to the assessment of the intrinsic activity against the erythrocytic asexual life cycle (blood schizontocides). Two Plasmodium falciparum clones from CDC/Indochina III (W-2) and CDC/Sierra Leone I (D-6) (Oduola A M, Weatherly N F, Bowdre J H, Desjardins R E. Plasmodium falciparum: cloning by single-erythrocyte micromanipulation and heterogeneity in vitro. Exp Parasitol. 1988 66(1):86-95) were used for all assays. TM91C235, a multiple drug resistant isolate from Thailand, was used for the prescreening assay. W-2 is resistant to chloroquine, quinine, and pyrimethamine and susceptible to mefloquine. D-6 tends to be more resistant to mefloquine and susceptible to chloroquine, quinine, and pyrimethamine. All documents cited in this paragraph are incorporated by reference in their entirety.
# (§2) All parasites were maintained in continuous long term cultures in RPMI-1640 medium supplemented with 6% washed human A positive (A+) (erythrocytes, 25 mM Hepes, […], and 10% heat inactivated A+ human plasma or ALBUMAX® (lipid-rich bovine serum albumin; Invitrogen, Carlsbad, Calif.). All cultures and assays were conducted at 37° C. under an atmosphere of 5% CO2 and 5% O2, with a balance of N2.
# (§3) The prescreening assay uses TM91C235 diluted at a 0.4% parasitemia in a 1% hematocrit in folic acid free and p-aminobenzoic acid free media RPMI-1640 and ALBUMAX®. One mg of the compound is typically dissolved in 100 μl of dimethyl sulfoxide (DMSO). The compound is further diluted in culture medium (FF) with ALBUMAX® for the first initial starting concentration. The rest of the stock drug solution was kept at −70° C. The isolate was preexposed, in duplicate, at three concentrations (25,000 ng/ml, 2,500 ng/ml, and 25 ng/ml) of the test compound for 48 hr in a 96-well microtiter plate (MTP) using the BIOMEK® 2000 automated laboratory workstation. Each MTP contains chloroquine as control to assess the relative activity of the compound and to monitor the response of TM91C235.
# (§4) After the preincubation, [^3H]-hypoxanthine was added to each well of the MTP. (The assay relies on the incorporation of radiolabeled hypoxanthine by the parasites, which indicates reproduction, and inhibition of isotope incorporation was attributed to activity of known or candidate antimalarial drugs). After 72 hr of total incubation time, the MTP were frozen to lyse the erythrocytes and parasites. The parasite DNA was recovered by harvesting the lysate onto glass-fiber filter plates using a Packard FilterMate™ Cell Harvester. The radioactivity was counted on a Packard TopCount™ microplate scintillation counter. The results were recorded as counts per minutes (CPM) per well at each drug concentration divided by the arithmetic mean of the CPM from the three untreated infection parasite control wells.
# (§5) The serial dilution assay was conducted using the same assay conditions and stock solution of the compound used for the preliminary screen, described above. Both the D-6 and the W-2 clones were used. The compounds were diluted two-fold over 11 different concentration ranges with a starting concentration that was based on the preliminary screen. […]
# [2] = system: Plasmodium falciparum clone CDC/Sierra Leone I (D-6); assay: In vitro antimalarial [3H]-hypoxanthine incorporation serial dilution assay, D6; format: cell-based; settings: P. falciparum D6, parasites exposed for 72 hours; for IC50: Plasmodium falciparum
# From the text: as §1, §2, §3, §4, §5
# [3] = system: Plasmodium falciparum TM91C235; assay: In vitro antimalarial [3H]-hypoxanthine incorporation serial dilution assay, TM91C235; format: cell-based; settings: P. falciparum TM91C235, parasites exposed for 72 hours; for IC50: Plasmodium falciparum
# [4] = system: Plasmodium cynomolgi; settings: rhesus monkey; cited from earlier work
# [5] = system: Plasmodium vivax; settings: non-immune patients, as compared to controls; cited from earlier work
# [6] = system: Plasmodium falciparum; settings: non-immune patients, as compared to controls; cited from earlier work
# [7] = system: Plasmodium berghei; settings: cited from earlier work
# [8] = system: Plasmodium yoelii nigeriensis; settings: cited from earlier work
Molecule,IC50 [1] [µg/mL],IC50 [2] [µg/mL],IC50 [3] [µg/mL],other results
CC[C@H]1OC(=O)[C@H](C)[C@@H](O[C@H]2C[C@@](C)(OC)[C@@H](O)[C@H](C)O2)[C@H](C)[C@@H](O[C@@H]2O[C@H](C)C[C@H](N(C)C)[C@H]2O)[C@](C)(O)C[C@@H](C)CN(CCCN(CCC#N)C(=O)Nc2cc(OC)c(OC)c(OC)c2)[C@H](C)[C@@H](O)[C@]1(C)O [Compound 16],> 1.76,0.487,0.272,
CC[C@H]1OC(=O)[C@H](C)[C@@H](O[C@H]2C[C@@](C)(OC)[C@@H](O)[C@H](C)O2)[C@H](C)[C@@H](O[C@@H]2O[C@H](C)C[C@H](N(C)C)[C@H]2O)[C@](C)(O)C[C@@H](C)CN(CCCNC(=O)NCc2ccccc2)[C@H](C)[C@@H](O)[C@]1(C)O [Compound 17],0.351,0.566,0.278,
CC[C@H]1OC(=O)[C@H](C)[C@@H](O[C@H]2C[C@@](C)(OC)[C@@H](O)[C@H](C)O2)[C@H](C)[C@@H](O[C@@H]2O[C@H](C)C[C@H](N(C)C)[C@H]2O)[C@](C)(O)C[C@@H](C)CN(CCCN(CCC#N)C(=O)NCc2ccccc2)[C@H](C)[C@@H](O)[C@]1(C)O [Compound 18],0.405,0.776,0.522,
CC[C@H]1OC(=O)[C@H](C)[C@@H](O[C@H]2C[C@@](C)(OC)[C@@H](O)[C@H](C)O2)[C@H](C)[C@@H](O[C@@H]2O[C@H](C)C[C@H](N(C)C)[C@H]2O)[C@](C)(O)C[C@@H](C)CN(CCCN(CCC#N)C(=O)NC(C)C)[C@H](C)[C@@H](O)[C@]1(C)O [Compound 19],> 1.76,> 0.797,1.19,
CC[C@H]1OC(=O)[C@H](C)[C@@H](O[C@H]2C[C@@](C)(OC)[C@@H](O)[C@H](C)O2)[C@H](C)[C@@H](O[C@@H]2O[C@H](C)C[C@H](N(C)C)[C@H]2O)[C@](C)(O)C[C@@H](C)CN(CCCNC(=O)NS(=O)(=O)c2ccc(C)cc2)[C@H](C)[C@@H](O)[C@]1(C)O [Compound 20],> 1.76,> 0.797,1.06,
CC[C@H]1OC(=O)[C@H](C)[C@@H](O[C@H]2C[C@@](C)(OC)[C@@H](O)[C@H](C)O2)[C@H](C)[C@@H](O[C@@H]2O[C@H](C)C[C@H](N(C)C)[C@H]2O)[C@](C)(O)C[C@@H](C)CN(CCCNC(=O)NS(=O)(=O)c2ccccc2C)[C@H](C)[C@@H](O)[C@]1(C)O [Compound 21],1,0.427,> 1.62,
CC[C@H]1OC(=O)[C@H](C)[C@@H](O[C@H]2C[C@@](C)(OC)[C@@H](O)[C@H](C)O2)[C@H](C)[C@@H](O[C@@H]2O[C@H](C)C[C@H](N(C)C)[C@H]2O)[C@](C)(O)C[C@@H](C)CN(CCCNC(=O)NS(=O)(=O)c2ccccc2Cl)[C@H](C)[C@@H](O)[C@]1(C)O [Compound 22],> 1.76,> 0.797,1.53,
CC[C@H]1OC(=O)[C@H](C)[C@@H](O[C@H]2C[C@@](C)(OC)[C@@H](O)[C@H](C)O2)[C@H](C)[C@@H](O[C@@H]2O[C@H](C)C[C@H](N(C)C)[C@H]2O)[C@](C)(O)C[C@@H](C)CN(CCCN(CCC#N)C(=O)Nc2ccccc2C(F)(F)F)[C@H](C)[C@@H](O)[C@]1(C)O [Compound 23],0.0626,0.535,0.153,
CC[C@H]1OC(=O)[C@H](C)[C@@H](O[C@H]2C[C@@](C)(OC)[C@@H](O)[C@H](C)O2)[C@H](C)[C@@H](O[C@@H]2O[C@H](C)C[C@H](N(C)C)[C@H]2O)[C@](C)(O)C[C@@H](C)CN(CCCN(CCC#N)C(=O)Nc2cc(OC)c(OC)c(OC)c2)[C@H](C)[C@@H](O)[C@]1(C)O [Compound 24],,,,IC50 W2 [1]: 1.7881 µg/mL; IC50 D6 [2]: 0.4872 µg/mL; IC50 TM91C235 [3]: 0.2719 µg/mL
CC[C@H]1OC(=O)[C@H](C)[C@@H](O)[C@H](C)[C@@H](O[C@@H]2O[C@H](C)C[C@H](N(C)C)[C@H]2O)[C@](C)(O)C[C@@H](C)CN(CCCNC(=S)NCc2ccccc2)[C@H](C)[C@@H](O)[C@]1(C)O [Compound 25],> 1.76,> 0.797,1.21,
CC[C@H]1OC(=O)[C@H](C)[C@@H](O)[C@H](C)[C@@H](O[C@@H]2O[C@H](C)C[C@H](N(C)C)[C@H]2O)[C@](C)(O)C[C@@H](C)CN(CCCN(CCC#N)C(=O)NC(C)c2cccc3ccccc23)[C@H](C)[C@@H](O)[C@]1(C)O (stereo partly drawn) [Compound 26],0.361,> 0.797,0.39,
CC[C@H]1OC(=O)[C@H](C)[C@@H](O)[C@H](C)[C@@H](O[C@@H]2O[C@H](C)C[C@H](N(C)C)[C@H]2O)[C@](C)(O)C[C@@H](C)CN(CCCNC(=O)Nc2ccc3ccccc3c2)[C@H](C)[C@@H](O)[C@]1(C)O [Compound 27],0.467,0.716,0.312,
CC[C@H]1OC(=O)[C@H](C)[C@@H](O)[C@H](C)[C@@H](O[C@@H]2O[C@H](C)C[C@H](N(C)C)[C@H]2O)[C@](C)(O)C[C@@H](C)CN(CCCNC(=S)NCCCc2ccccc2)[C@H](C)[C@@H](O)[C@]1(C)O [Compound 28],0.41,0.864,0.255,
CC[C@H]1OC(=O)[C@H](C)[C@@H](O)[C@H](C)[C@@H](O[C@@H]2O[C@H](C)C[C@H](N(C)C)[C@H]2O)[C@](C)(O)C[C@@H](C)CN(CCCNC(=S)Nc2cccc3ccccc23)[C@H](C)[C@@H](O)[C@]1(C)O [Compound 29],0.172,0.954,0.297,
CC[C@H]1OC(=O)[C@H](C)[C@@H](O)[C@H](C)[C@@H](O[C@@H]2O[C@H](C)C[C@H](N(C)C)[C@H]2O)[C@](C)(O)C[C@@H](C)CN(CCCNC(=O)Nc2cccc3ccccc23)[C@H](C)[C@@H](O)[C@]1(C)O [Compound 30],0.471,> 0.797,0.508,
"CC[C@H]1OC(=O)[C@H](C)[C@@H](O[C@H]2C[C@@](C)(OC)[C@@H](O)[C@H](C)O2)[C@H](C)[C@@H](O[C@@H]2O[C@H](C)C[C@H](N(C)C)[C@H]2O)[C@](C)(O)C[C@@H](C)CN(C)[C@H](C)[C@@H](O)[C@]1(C)O [azithromycin, reference compound]",1.76,0.797,1.62,efficacy in monkey model [4]: active; prophylactic efficacy for Plasmodium vivax [5]: 98.9%; prophylactic efficacy for Plasmodium falciparum [6]: 71.6%
midecamycinin,,,,"efficacy in monkey model [4]: no efficacy; activity in mouse model, Plasmodium berghei [7]: active; activity in mouse model, Plasmodium yoelii nigeriensis [8]: active"
